Results reported in patent US4210648A, “II-Aminoacyl-5,11-dihydro-6H-pyrido(2,3-B) (1,4)benzodiazepin-6-ones and salts thereof” (Boehringer Ingelheim GmbH, priority 1977, dated 1980).

What was measured:
[1] = test system: stress ulcers; assay: inhibiting effect on the formation of stress ulcers in rats; type: in vivo
Method: (§1) The compounds were examined with regard to their inhibiting effect on the formation of stress ulcers in rats and their spasmolytic effect, related to atropine, with consideration of their acute toxicity.
The inhibiting effect on the formation of stress ulcers in rats was determined according to the method of K. Takagi and S. Okabe, Jap.Journ.Pharmac. 18, pp. 9 to 18 (1968). Fed female rats with a body weight between 220 and 260 gm were individually put into small wire cages and were subsequently kept vertically submerged in a water bath which was kept constant at a temperature of 23° C. for 16 hours, so that only the heads and the breastbones of the animals were above the water surface. The test compounds were administered perorally 5 to 10 minutes before. With each substance five animals were treated. 1 ml of a 0.9% physiological sodium chloride solution or 1 ml of a 1% tylose solution was administered to the control animals in the same way. After 18 hours the animals were killed by an overdose of ethyl chloride, the stomachs were excised, cut along the big curvature and spread on a cork plate. The evaluation was carried out according to the methods of Marazzi-Uberti and Turba, Med. Exp. 4, pp. 284 to 292 (1961), and Takagi and Okabe (supra).

[2] = test system: guinea pig colon; assay: spasmolytic effect in vitro on the guinea pig colon (acetylcholine-induced spasms; comparison atropinesulfate); details: relative to atropine = 1
Method: as §1
(§2) The spasmolytic effect was determined in vitro on the guinea pig colon, using the experimental arrangement according to R. Magnus, Pflugers Archiv, 102, pp. 123 (1904). Acetylcholine was taken to induce spasms, the substance for comparison was atropinesulfate. The spasticum was administered one minute before the administration of the spasmolytic substance, and the spasmolytic was allowed to take effect for 1 minute. […] The acute toxicity was determined after peroral administration of the test substance to fasted white mice with a body weight of 18 to 20 gm. The observation period was 14 days. For each dosage a group of six mice was used.

[3] = acute toxicity after peroral administration to mice; type: in vivo; details: in vivo, po, mouse, observation 14 days
Method: as §2

[4] = test system: mouse; assay: as above; type: in vivo
Method: as §2

SMILES	Ulcer-inhibition in % (rat) after peroral administr. of 12.5 mg/kg [1] [%]	Ulcer-inhibition in % (rat) after peroral administr. of 25 mg/kg [1] [%]	Ulcer-inhibition in % (rat) after peroral administr. of 50 mg/kg [1] [%]	Spasmolysis (acetylcholine) with regard to Atropin = 1 [2]	LD50 at 336 h [3] [mg/kg]	animals died at 1000 mg/kg [4]	animals died at 2000 mg/kg ([4]; 2000 mg/kg)	animals died at 1500 mg/kg [4]
COC1CCN(CC(=O)N2c3ccccc3C(=O)Nc3cccnc32)CC1 [B, 5,11-Dihydro-11-[(4-methoxypiperidino)acetyl]-6H-pyrido [2,3-b]-[1,4]benzodiazepin-6-one]	53	79	89	1/125	> 1000	2 out of 5		
O=C1Nc2cccnc2N(C(=O)CCN2CCCCC2)c2ccccc21 [D, 5,11-Dihydro-11-(3-piperidinopropionyl)-6H-pyrido [2,3-b][1,4]-benzodiazepin-6-one]	58	69	84	1/125	~2000		3 out of 5	
CC1CCCCN1CCC(=O)N1c2ccccc2C(=O)Nc2cccnc21 (stereo not drawn) [C, 5,11-Dihydro-11-[3-(2-methylpiperidino)propionyl]-6H-pyrido-[2,3-b][1,4]benzodiazepin-6-one]	79	84	95	1/50	> 1000	1 out of 5		
O=C1Nc2cccnc2N(C(=O)CCCN2CCCC2)c2ccccc21 [E, 5,11-Dihydro-11-(4-pyrrolidino-butyryl)-6H-pyrido[2,3-b][1,4]-benzodiazepin-6-one]	18	58	79	1/190	> 1500			1 out of 6
CCN1CCCC1CNCC(=O)N1c2ccccc2C(=O)N(C)c2cccnc21 (stereo not drawn) [A, 11-{[(1-Ethyl-2-pyrrolidinyl)methylamino]acetyl}-5,11-dihydro-5-methyl-6H-pyrido[2,3-b][1,4]benzodiazepin-6-one]	90	90	95	1/250	~1500			2 out of 4
